From patent US20030086920A1, “Use of des-Aspartate-angiotensin I as an agent for the treatment and prevention of glomerulosclerosis and renal failure” (priority 2000, published 2003)

Tests used:
[1] = test system: ablation nephropathic rats; experiment: Proteinuria in 5/6 nephrectomized (ablation nephropathic) rats; assay type: in vivo, Sprague Dawley rats; settings: for 24-hour urinary excretion of protein: Weeks 9-16 post 5/6 nephrectomy, 762 nmoles/kg/day oral for 8 weeks, mean ± SEM
Method: Five-sixths nephrectomy was carried out as described by Morrison (11). Briefly, each animal was anaesthetized with 7% w/v chloral hydrate (0.4 g/kg, i.p.). An incision was made in the ventral abdominal wall to access the kidneys. Right nephrectomy was performed and the cranial and caudal third of the left kidney were cut off. Tissue adhesive (Histoccryl, B. Braun) was used to seal the cut ends of the left kidney and prevent bleeding. In this way 5/6 of the renal parenchyma was removed. This model results in focal and segmental glomerulosclerosis, resembling renal lesions in humans like oligomeganephronia, membranous nephropathy, minimal change nephritis, proliferative glomerulonephritis, analgesic nephropathy, diabetes mellitus, unilateral nephrectomy, cortical necrosis, and unilateral renal agenesis (9).
Following the operation, each animal was placed in a metabolic cage for 24 hours once a week for a duration of 8 weeks. The 24-hour urine output and the concentration of protein in the urine were measured. After the 8th week, the animals were randomly divided into two groups (8 animals per group). Animals in one of the group (the treatment group) were orally administered 762 nmoles/kg/day of des-Asp-angiotensin I dissolved in 0.5 ml of saline via a 1-ml syringe with a blunted needle for a period of 8 weeks. The dose of 762 nmoles/kg/day was calculated based on the maximum effective oral anti-cardiac hypertrophic dose (250 nmole per rat of average weight of 328 g) in the original parent patent. Animals in the other group (the control group) were similarly administered with 0.5 ml of saline. Weekly measurement of 24-hour urine output and the concentration of protein in the urine in these animals were carried out for another 8 weeks. The protocol was designed based on our preliminary observation that urinary excretion of protein in the 5/6 nephrectomized rats commenced to increase above the normal value in 7th to 8th week post nephrectomy. A repeat of the experiment with 12 nephrectomized rats per group was carried out.
Data were expressed as mean±SEM. […]

cardiac hypertrophy = settings: rat of average weight of 328 g, from the original parent patent; cited from earlier work

des-Aspartate angiotensin I [des-Asp-angiotensin I]
24-hour urinary excretion of protein ([1]; 8 rats, first experiment, saline control 37.2 ± 2.3, p = 0.024): *28.7 ± 2.5 mg | 24-hour urinary excretion of protein ([1]; 12 rats, repeat experiment, saline control 51.7 ± 4.7, p = 0.048): *39.6 ± 3.3 mg | Anti-proteinuric action (progressive development of proteinuria) ([1]; ablation nephropathic rats, oral dose of 762 nmoles/kg/day): effective agent in attenuating the progressive development of proteinuria | Maximum effective oral anti-cardiac hypertrophic dose (cardiac hypertrophy): 250 nmole per rat
